From PubChem BioAssay (NCI) come the findings set out here.

Among the test systems are HCT-15 colon; A549 NSCLC; MDA-MB-435; NCI-H522 lung; SK-MEL-2 melanoma; SN12C renal; HOP-62 NSCLC; U251 CNS; MALME-3M melanoma; HCC-2998 colon.
Experiment in all cases: inhibition of tumour cell growth, NCI panel, 48 h

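Test compounds were applied to cells in 96-well plates for 48 hours at 5 doses. GI50: concentration for 50% inhibition of growth. TGI marks complete inhibition of growth.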

`COC(=O)c1ccc(NC(=O)c2ccc(NC3=C(Cl)C(=O)N(Cc4ccccc4)C3=O)cc2)cc1`: the GI50 in the assay on HCT-15 colon was 14.6 µM; in the assay with A549 NSCLC, 15.8 µM; in the assay on MDA-MB-435 it was 12.3 µM; with NCI-H522 lung it was 13.1 µM; in the assay with SK-MEL-2 melanoma, 17.3 µM; in the assay on SN12C renal it was 8.13 µM. The GI50 in the assay with HOP-62 NSCLC is 11.1 µM; in the assay on U251 CNS, 9.63 µM. The TGI is 27.7 µM with HCT-15 colon; 29.2 µM in the assay with A549 NSCLC; 27 µM in the assay on MDA-MB-435; 33.1 µM in the assay on NCI-H522 lung; 42.2 µM in the assay on SK-MEL-2 melanoma; 21.7 µM in the assay with SN12C renal. The TGI is 23.1 µM in the assay with HOP-62 NSCLC and 21.4 µM with U251 CNS.
`Cc1ccc(-c2c3c(nn2-c2ccc(S(=O)(=O)NC(=O)NC4CCCCC4)cc2)-c2ccccc2C3)cc1`: the GI50 in the assay with HCT-15 colon was 16.1 µM; in the assay on A549 NSCLC, 20.2 µM; with MDA-MB-435 it was 19 µM; with NCI-H522 lung, 12 µM; with SK-MEL-2 melanoma it was 16.8 µM; with SN12C renal, 19.4 µM. Besides, the values for the GI50 in the assay with HOP-62 NSCLC and in the assay on U251 CNS were 18.8 µM and 12.3 µM, respectively. Besides, the TGI with HCT-15 colon came out at 47.7 µM; in the assay with A549 NSCLC, 44 µM; in the assay with MDA-MB-435 it was 41.4 µM; in the assay on NCI-H522 lung, 28.9 µM; with SK-MEL-2 melanoma, 32 µM; in the assay on SN12C renal, 35.6 µM. The figures for the TGI in the assay on HOP-62 NSCLC and in the assay with U251 CNS were 38.2 µM and 26.9 µM, respectively.
Consider `C=C(C)C1CCC2=CC(CC3(C)OC3C3=CC(C(=O)OC)=C(C1)O3)OC2=O` (stereo unspecified), for which the TGI in the assay on MALME-3M melanoma, in the assay on HCT-15 colon, in the assay with A549 NSCLC, with MDA-MB-435, with NCI-H522 lung and in the assay on SK-MEL-2 melanoma was greater than 100 µM in each case. Further, the TGI with SN12C renal, in the assay on HOP-62 NSCLC and in the assay on U251 CNS was greater than 100 µM throughout.
With `Cn1c2c(c3ccccc3c1=O)C(=O)c1ccccc1-2`, the TGI in the assay on MALME-3M melanoma, in the assay with HCT-15 colon, in the assay on A549 NSCLC, in the assay with MDA-MB-435, in the assay with NCI-H522 lung and in the assay on SK-MEL-2 melanoma was greater than 100 µM in each case. For the same molecule, the TGI in the assay on SN12C renal, with HOP-62 NSCLC and in the assay with U251 CNS was greater than 100 µM each time.
For `COc1c(-c2ccc3c(c2)OCO3)oc2cc(O)cc(O)c2c1=O`, the TGI was greater than 100 µM in the assay with HCT-15 colon; greater than 100 µM with A549 NSCLC; greater than 100 µM with MDA-MB-435; 83.8 µM with NCI-H522 lung; greater than 100 µM in the assay on SK-MEL-2 melanoma; greater than 100 µM in the assay on SN12C renal. In addition, the figures for the TGI with HCC-2998 colon, in the assay on HOP-62 NSCLC and in the assay with U251 CNS were greater than 100 µM, 55.5 µM and greater than 100 µM, respectively.
For `CCn1cc(C(=O)N/N=C/c2cccs2)c(=O)c2cc(F)c(N3CCNC(C)C3)c(F)c21` (stereo unspecified), the GI50 with HCT-15 colon is 1.47 µM; in the assay on A549 NSCLC, 1.8 µM; in the assay with MDA-MB-435, 1.78 µM; with SK-MEL-2 melanoma, 1.96 µM; with SN12C renal it was 1.55 µM; in the assay with HCC-2998 colon, 1.8 µM. The GI50 with HOP-62 NSCLC was 1.59 µM; in the assay with U251 CNS it was 1.67 µM. Moreover, the TGI in the assay with HCT-15 colon is 2.82 µM; in the assay on A549 NSCLC, 3.37 µM; in the assay with MDA-MB-435 it was 3.24 µM; in the assay with SK-MEL-2 melanoma, 3.95 µM; in the assay with SN12C renal, 2.88 µM; with HCC-2998 colon, 3.44 µM. In addition, the TGI with HOP-62 NSCLC came out at 3.17 µM; with U251 CNS, 3.06 µM.
As to `CC(=O)c1ccc2c3c1[C@H]1O[C@H]1c1cccc(c1-3)[C@@H]1O[C@H]21`, the TGI with MALME-3M melanoma was 3.07 µM; in the assay with HCT-15 colon, 4.12 µM; with A549 NSCLC, 9.32 µM; in the assay with MDA-MB-435 it was 4.54 µM; in the assay on NCI-H522 lung, 1.1 µM; in the assay with SK-MEL-2 melanoma it was greater than 100 µM. In addition, the TGI in the assay on SN12C renal came out at 3.86 µM; in the assay with HOP-62 NSCLC, 8.83 µM; with U251 CNS, 4.3 µM. Moreover, in the assay with SK-MEL-2 melanoma, the GI50 is 3.79 µM.
In the case of `O=C1CC(Cc2n[nH]c3c2CCCC3)CC(=O)N1`, the TGI with MALME-3M melanoma, with HCT-15 colon, in the assay on A549 NSCLC, in the assay on MDA-MB-435, in the assay on SK-MEL-2 melanoma and in the assay on SN12C renal was greater than 100 µM throughout. For the same molecule, the TGI in the assay on HCC-2998 colon, with HOP-62 NSCLC and in the assay with U251 CNS was greater than 100 µM throughout.
For `O=C1C(Cl)=C(Nc2cc(Cl)ccc2O)C(=O)N1Cc1ccccc1`, the GI50 with MALME-3M melanoma was 20.7 µM; with HCT-15 colon, 17 µM; with A549 NSCLC, 17 µM; in the assay with MDA-MB-435 it was 19 µM; in the assay on NCI-H522 lung it was 15.1 µM; in the assay on SK-MEL-2 melanoma it was 20.3 µM. In addition, the values for the GI50 in the assay on SN12C renal, in the assay with HOP-62 NSCLC and in the assay with U251 CNS were 19.5 µM, 34 µM and 15.8 µM, respectively. The TGI stood at 37.5 µM in the assay on MALME-3M melanoma; 32.6 µM in the assay with HCT-15 colon; 36.7 µM in the assay with A549 NSCLC; 34.9 µM with MDA-MB-435; 30.5 µM in the assay with NCI-H522 lung; 53.3 µM in the assay on SK-MEL-2 melanoma. Besides, the TGI with SN12C renal was 34.4 µM; in the assay with HOP-62 NSCLC, greater than 61 µM; in the assay with U251 CNS, 29.6 µM.
For `C(=C\c1ccncc1)/c1ccncc1`, the GI50 with MALME-3M melanoma, with HCT-15 colon, in the assay with A549 NSCLC, in the assay with MDA-MB-435, in the assay on SK-MEL-2 melanoma and with SN12C renal was greater than 100 µM throughout. Moreover, the GI50 in the assay on HOP-62 NSCLC and in the assay on U251 CNS was greater than 100 µM throughout. The TGI in the assay on MALME-3M melanoma, in the assay on HCT-15 colon, in the assay on A549 NSCLC, with MDA-MB-435, in the assay on SK-MEL-2 melanoma and in the assay on SN12C renal was greater than 100 µM each time. Further, the TGI in the assay on HOP-62 NSCLC and with U251 CNS was greater than 100 µM in each case.
In the case of `C[C@@H](CS[As](C)C)C(=O)N1CCC[C@H]1C(=O)O`, the GI50 in the assay with MALME-3M melanoma is 0.164 µM; with HCT-15 colon it was 0.0888 µM; with A549 NSCLC, 1.58 µM; in the assay on MDA-MB-435 it was 0.138 µM; with NCI-H522 lung it was 0.0715 µM; with SK-MEL-2 melanoma, 0.468 µM. The values for the GI50 in the assay with SN12C renal, in the assay on HOP-62 NSCLC and in the assay with U251 CNS were 0.2 µM, 0.897 µM and 0.482 µM, respectively. Besides, the TGI with MALME-3M melanoma is 1.15 µM; in the assay with HCT-15 colon it was 1.28 µM; in the assay with A549 NSCLC, greater than 100 µM; in the assay with MDA-MB-435, 0.468 µM; in the assay with NCI-H522 lung it was 0.199 µM; in the assay with SK-MEL-2 melanoma, 5.88 µM. Besides, the TGI in the assay on SN12C renal was determined as 1.03 µM; with HOP-62 NSCLC it was 5.11 µM; with U251 CNS, 2.43 µM.
